In patent publication US12558317B2, “Compositions and methods for treating disorders ameliorated by muscarinic receptor activation” (Karuna Therapeutics, Inc., priority 2018, dated 2026):

Key:
[1] = tested on: normal healthy volunteers; assay: KAR-001 Phase I study: safety and tolerability, cholinergic adverse events; format: in vivo, human
[2] = KAR-001 Phase I study: xanomeline pharmacokinetics; settings: human, in vivo, 225 mg daily; for AUC / Cmax: oral, geometric mean; for AUC: Xanomeline AUC0-tau; for Cmax: Xanomeline Cmax
Experimental: A Phase I, double-blind, randomized multiple-dose pilot study was conducted with xanomeline administered alone compared to xanomeline administered with trospium chloride in normal healthy volunteers. […]

[3] = 26-week study of Alzheimer's disease; cited from earlier work
[4] = KAR-001 Safety Population, cholinergic TEAE, number of individual occurrences
[5] = KAR-001 Safety Population, cholinergic TEAE, number of subjects
[6] = KAR-001 Safety Population, cholinergic TEAE, percentage of subjects in arm

CCCCCCOc1nsnc1C1=CCCN(C)C1 [xanomeline]
AE leading to discontinuation (D/C), # events ([1]; KAR-001): 2
AE leading to discontinuation (D/C), % ([1]; KAR-001): 6.1%
Any SAE, % ([1]; KAR-001): (0.0) %
Any clinically significant TEAE, # events ([1]; KAR-001): 5
Any clinically significant TEAE, % ([1]; KAR-001): 15.2%
Any study drug-related TEAE, # events ([1]; KAR-001): 92
Any study drug-related TEAE, % ([1]; KAR-001): 69.7%
Diarrhea, # of events ([1]; KAR-001): 8
Diarrhea, % of subjects ([1]; KAR-001): 21.2%
Diarrhea, n subjects ([1]; KAR-001): 7
Max Severity of TEAE: Mild, % ([1]; KAR-001): (66.7) N/A %
Max Severity of TEAE: Moderate, % ([1]; KAR-001): (15.2) N/A %
Max Severity of TEAE: Severe, % ([1]; KAR-001): (0.0) %
Max severity of study drug-related TEAE: Mild, % ([1]; KAR-001): (57/6) N/A
Max severity of study drug-related TEAE: Moderate, % ([1]; KAR-001): (12.1) N/A %
Max severity of study drug-related TEAE: Severe, % ([1]; KAR-001): (0.0) N/A %
Nausea, # of events ([1]; KAR-001): 11
Nausea, % of subjects ([1]; KAR-001): 24.2%
Nausea, n subjects ([1]; KAR-001): 8
Salivation (salivary hypersecretion), % of subjects ([1]; KAR-001): 36.4%
Salivation, # of events ([1]; KAR-001): 16
Salivation, n subjects ([1]; KAR-001): 12
Study drug related AE leading to D/C, # events ([1]; KAR-001): 1
Study drug related AE leading to D/C, % ([1]; KAR-001): 3.0%
Subjects with any TEAE, # events ([1]; KAR-001): 108
Subjects with any TEAE, % ([1]; KAR-001): 81.8%
Sweating (hyperhidrosis), % of subjects ([1]; KAR-001): 48.5%
Sweating, # of events ([1]; KAR-001): 24
Sweating, n subjects ([1]; KAR-001): 16
Vomiting, # of events ([1]; KAR-001): 5
Vomiting, % of subjects ([1]; KAR-001): 15.2%
Vomiting, n subjects ([1]; KAR-001): 5
Cholinergic adverse events: Any TEAEs, # of events ([1]; KAR-001, healthy volunteers): 64
Cholinergic adverse events: Any TEAEs, n subjects ([1]; KAR-001, healthy volunteers): 21
Cholinergic adverse events: Any TEAEs, % of subjects ([1]; KAR-001, healthy volunteers, listed as Xanomeline + placebo): 63.6%
Cholinergic adverse events: Any TEAEs, % of subjects ([1]; KAR-001, healthy volunteers, listed as xanomeline+placebo): 63%
Diarrhea, # occurrences [1, 4]: 8
Gastrointestinal disorders, # occurrences [1, 4]: 40
Hyperhidrosis, # occurrences [1, 4]: 24
Nausea, # occurrences [1, 4]: 11
Salivary hypersecretion, # occurrences [1, 4]: 16
Skin and subcutaneous tissue disorders, # occurrences [1, 4]: 24
Vomiting, # occurrences [1, 4]: 5
Diarrhea, n subjects [1, 5]: 7
Gastrointestinal disorders, n subjects [1, 5]: 18
Hyperhidrosis, n subjects [1, 5]: 16
Nausea, n subjects [1, 5]: 8
Salivary hypersecretion, n subjects [1, 5]: 12
Skin and subcutaneous tissue disorders, n subjects [1, 5]: 16
Vomiting, n subjects [1, 5]: 5
Diarrhea, % of subjects [1, 6]: 20.6%
Gastrointestinal disorders, % of subjects [1, 6]: 52.9%
Hyperhidrosis, % of subjects [1, 6]: 47.1%
Nausea, % of subjects [1, 6]: 23.5%
Salivary hypersecretion, % of subjects [1, 6]: 35.3%
Skin and subcutaneous tissue disorders, % of subjects [1, 6]: 47.1%
Vomiting, % of subjects [1, 6]: 14.7%
Subjects with any TEAEs (cholinergic), # occurrences ([1]; KAR-001 Safety Population, number of individual occurrences): 64
Subjects with any TEAEs (cholinergic), n subjects ([1]; KAR-001 Safety Population, number of subjects): 21
Subjects with any TEAEs (cholinergic), % of subjects ([1]; KAR-001 Safety Population, percentage of subjects in arm): 61.8%
Tmax ([2]; KAR-001 Day 3, median): 2 h
AUC ([2]; KAR-001 Day 3): 12.6 ng·h/mL
AUC ([2]; KAR-001 Day 9): 24.8 ng·h/mL
Cmax ([2]; KAR-001 Day 3): 2.95 ng/mL
Cmax ([2]; KAR-001 Day 9): 4.57 ng/mL
dropout rate [3]: 56%

CCCCCCOc1nsnc1-c1ccc[n+](C)c1 [Compound V]
mutagenic potential (Mutagenic potential): negative
